Patent US4230703A, “11-Oxodibenz(b,e)azepines” (priority 1977, dated 1980)

Columns and labels:
[1] = tested on: volume of edema of left hind paw (carrageenin); assay: Test on anti-inflammatory activity (carrageenin hind paw edema); assay type: in vivo, Wistar male rats; conditions: Rattus norvegicus, po, 3 h, p.o., read-out: Percent inhibition (average value ± standard error)
Procedure: In each group, the volumes of the left hind paw were measured by a volume differential meter (made by Ugo Basile Company), and 0.1 ml of a 1% suspension of carrageenin in distilled water was subcutaneously injected into the plantar tissues of the left hind paw. One hour later, each of the test compounds was suspended in the same vehicle as used in the test on analgesic activity and administered orally to the rats. Three hours later, the volumes of the left hind paw were again measured. The increase in volume of the left hind paw of each rat in each group (the volume of edema) was measured. The percent edema inhibition on the group administered with the test compounds based on the control group administered only with the vehicle was calculated in accordance with the following equation, and the results are shown in Table 2. [formula]

[2] = tested on: number of writhings (0.6% acetic acid, intraperitoneal); assay: Test on analgesic activity (acetic acid-induced writhing); assay type: in vivo, mice (ddY, male); conditions: Mus musculus, po, mice; parentheses = 95% confidence limits
Procedure: Male mice (ddY) with a body weight of 18 to 22 g were used in groups each consisting of 10 mice. Each of the compounds was suspended in an aqueous solution of 0.5% of carboxymethyl cellulose and 2.0% of Tween 80, and the resulting suspension was administered orally to the mice through a tube. One hour after the administration, 0.6% acetic acid was administered intraperitoneally in an amount of 0.1 ml per 10 g of body weight, and the number of writhings which occurred in the mice during a period of 20 minutes after the administration was measured. The percent inhibition on a group administered with the test compound based on the control group administered only with the vehicle was calculated from the following equation, and the ED50 values of the test compounds were calculated from the percent inhibition in accordance with the method of Litchfield-Wilcoxon. [formula]
The parenthesized numerals show 95% confidence limits.

SD male and female rats = assay: in vivo; conditions: oral
Excerpt: (§1) Each of the test compounds was suspended in a physiological saline solution having dissolved therein 2% of Tween 80, and orally administered through a tube to groups of SD male and female rats (male: 130 to 150 g, female: 120 to 140 g) each group consisting of 8 rats. The rats were then observed for 2 weeks.

in vivo = conditions: rat, in vivo, po
Excerpt: as §1

SMILES | inhibition in vivo at 30 mg/kg [1] [%] | inhibition in vivo at 90 mg/kg [1] [%] | ED50 [2] [mg/kg] | further results
CN1Cc2ccccc2C(=O)c2cc(CC(=O)O)ccc21 [A, 5,6-dihydro-5-methyl-11-oxodibenz[b,e]azepine-2-acetic acid] | 30.4 ± 4.4 | 43.9 ± 6.6 | 9 | inhibition in vivo at 10 mg/kg [1]: 28.5 ± 2.8%
CC(C(=O)O)c1ccc2c(c1)C(=O)c1ccccc1CN2C (centres unmarked) [B, 2-(5,6-dihydro-5-methyl-11-oxodibenz[b,e]azepin-2-yl)propionic acid] | 23.2 ± 3.2 | 38.6 ± 5.3 | 26 | 
CN1Cc2ccccc2C(=O)c2c(CC(=O)O)cccc21 [C, 5,6-dihydro-5-methyl-11-oxodibenz[b,e]azepine-1-acetic acid] |  | 11.4 ± 12.7 |  | inhibition in vivo at 180 mg/kg ([1]; 180 mg/kg): 28.6 ± 8.3%
CN1Cc2ccccc2C(=O)c2ccc(CC(=O)O)cc21 [Compound D, 5,6-dihydro-5-methyl-11-oxodibenz[b,e]azepine-3-acetic acid] | 36.4 ± 11.9 |  | 78 | inhibition in vivo at 10 mg/kg [1]: 26.8 ± 2.9%
CNC(=O)Cc1ccc2c(c1)C(=O)c1ccccc1CN2C [Compound E, 5,6-dihydro-5-methyl-11-oxodibenz[b,e]azepine-2-acetic acid methyl amide] | 11.3 ± 4.3 | 44.8 ± 7.5 | 46.5 | 
COC(=O)Cc1ccc2c(c1)C(=O)c1ccccc1CN2C [F, methyl 5,6-dihydro-5-methyl-11-oxodibenz[b,e]azepine-2-acetate] | 11.8 ± 3.4 |  |  | 
CN1Cc2ccccc2C(=O)c2cc(CC(=O)O)cc(Cl)c21 [G, 5,6-dihydro-4-chloro-5-methyl-11-oxodibenz[b,e]azepine-2-acetic acid] | 23.8 ± 6.9 | 35.4 ± 5.5 |  | 
CN1Cc2cc(Cl)ccc2C(=O)c2cc(CC(=O)O)ccc21 [H, 5,6-dihydro-5-methyl-8-chloro-11-oxodibenz[b,e]azepine-2-acetic acid] | 26.8 ± 7.3 | 34.9 ± 6.5 |  | 
CCN1Cc2ccccc2C(=O)c2cc(CC(=O)O)ccc21 [I, 5,6-dihydro-5-ethyl-11-oxodibenz[b,e]azepine-2-acetic acid] | 25.6 ± 5.8 | 35.1 ± 8.2 | 15.9 | inhibition in vivo at 10 mg/kg [1]: 20.2 ± 6.6%
CCCN1Cc2ccccc2C(=O)c2cc(CC(=O)O)ccc21 [J, 5,6-dihydro-5-n-propyl-11-oxodibenz[b,e]azepine-2-acetic acid] | 18.6 ± 5.2 | 30.4 ± 4.8 | 15.5 | 
CN1Cc2ccccc2C(=O)c2cc(CC(=O)OCCO)ccc21 [K, hydroxyethyl 5,6-dihydro-5-methyl-11-oxodibenz[b,e]azepine-2-acetate] | 23.5 ± 11.1 | 30.4 ± 5.5 |  | 
CN1Cc2ccccc2C(=O)c2cc(CC(=O)OCC3COC(C)(C)O3)ccc21 (centres unmarked) [L, 2,2-dimethyl-1,3-dioxolan-5-yl methyl 5,6-dihydro-5-methyl-11-oxodibenz[b,e]azepine-2-acetate] | 17.6 ± 5.1 | 33.3 ± 4 |  | 
O=C(O)Cc1ccc2c(c1)C(=O)c1ccccc1CN2 [M, 5,6-dihydro-11-oxodibenz[b,e]azepine-2-acetic acid] | 41.2 ± 5.4 |  | 5.1 | inhibition in vivo at 10 mg/kg [1]: 37.3 ± 2.4%; Minimum lethal dose (SD male and female rats; female): 720 mg/kg; Minimum lethal dose (SD male and female rats; male): 720 mg/kg; LD50 at 336 h (in vivo; female): 840 mg/kg; LD50 at 336 h (in vivo; male): 810 mg/kg
CCCCC1C(=O)N(c2ccccc2)N(c2ccccc2)C1=O [Phenylbutazone, phenylbutazone, reference compound] | 20.7 ± 2.4 | 34.2 ± 5.3 | 130 | 
